Measured values reported in patent US20060030537A1, “Ceramide kinase and uses thereof” (priority 2004, published 2006).

Legend:
[1] = system: A549 cells; test: Quantification of arachidonic acid (AA) release in A549 cells; assay type: cell-based
Description: Cell Culture: A549 lung adenocarcinoma cells (epithelial-derived) were grown in low glucose DMEM (Invitrogen) supplemented with L-glutamine, 10% (v/v) fetal bovine serum (Invitrogen), 200 U/ml of penicillin G sodium, and 200 μg/ml of streptomycin sulfate. Cells were maintained under 80% confluency and standard incubator conditions (humidified atmosphere, 95% air, 5% CO2, 370 C). For treatment, cells were incubated for 2 hours in low glucose DMEM (Invitrogen) supplemented with L-glutamine, 2% (v/v) fetal bovine serum (Invitrogen), 200 U/ml of penicillin G sodium, and 200 μg/ml of streptomycin sulfate prior to the addition of agonist.
Quantification of arachidonic acid (AA) release: A549 cells (5×10^4) were labeled overnight with 5 μCi/mL [^3H]-AA (5 nM) (NEN). Cells were washed and incubated in DMEM supplemented with 2% fetal bovine serum for 2 hours. Following treatment, media was transferred to 1.5 mL polypropylene tubes, centrifuged at 10,000×g, and ^3H-AA cpm determined by scintillation counting. Results were controlled for equivalent number of cells quantified by MTT assay as described (Chalfant, C. E., Rathman, K., Pinkerman, R. L., Wood, R. E., Obeid, L. M., Ogretmen, B., and Hannun, Y. A. (2002) J. Biol. Chem. 277, 12587-12595) and by verification of total AA labeling by scintillation counting. For the experiments in FIG. 4, purified SMase D was obtained from Dr. Alfred H. Merrill, Jr., and SMase C (purified from Bacillus cereus) was obtained commercially from Sigma.
RNAi design and transfections: Knock-downs of ceramide kinase were performed essentially as described using sequence specific siRNA reagents (http:www.mpibpc.gwdg.de/abteilungen/100/105/sirna.html) (Lassus, P., Opitz-Araya, X., and Lazebnik, Y. (2002) Science 297, 1352-1354) using human ceramide kinase RNAi starting 142 nucleotides from start codon ([…]dTd (SEQ ID NO: 3) and […]dTd (SEQ ID NO:4)). All sequences were evaluated against the database using the NIH blast program to test for specificity (Xeragon, A Qiagen Company). A549 cells (3×10^4) were transfected with the 21-nucleotide duplexes using OligofectAMINE (Invitrogen) as recommended by the manufacturer. Following the 4 hour transfection, cells were treated and assayed for AA release or PGE2 synthesis at 26 hours post-transfection.

[2] = system: ceramide kinase; test: Ceramide kinase assay on lysates of treated or transfected A549 cells; assay type: cell-based, human; conditions: 26 hours after transfection
Description: FIGS. 5A-5C. IL-1β and calcium ionophore increase ceramide-1-phosphate production and ceramide kinase activity. FIGS. 5A and 5B. The effect of IL-1 and A23187 on C-1-P levels and AA liberation. A549 cells (2×10^5) were labeled overnight with 10 μCi/mL [^3H]-arachidonic acid (10 nM), washed, and then treated with either 2.5 ng/mL of IL-1β (FIG. 5A) or 1 μg/mL of A23187 (FIG. 5B) for the indicated times. Two hours prior to Bligh-Dyer extraction, cells were chased with 20 μM of D-e-C6 NBD-ceramide (Matreya). At the appropriate times, media was taken for AA analysis, and lipids from the cells were extracted by the Bligh-Dyer method followed by analysis of NBD-C-1-P formation. Data are presented as % control of C-1-P levels (J) and AA release (B). Data are representative of three separate determinations on 2 separate occasions. FIG. 5C. IL-1β and calcium ionophore increase ceramide kinase activity. A549 cells (5×10^5) were treated with either 2.5 ng/mL of IL-1β for 3.5 hours or 1 μg/mL of A23187 for 5 minutes. Cells were then washed, lysed in assay buffer, and assayed for ceramide kinase activity. Data is presented as % control of ceramide kinase activity (Arbitrary densitometry units of fluorescent NBD-C-1-P produced/min/mg of total cellular protein). Data are representative of three separate determinations on 2 separate occasions.
FIGS. 6A-6B. Ceramide kinase RNAi downregulates endogenous ceramide kinase activity and mRNA levels. FIG. 6A. The effect of ceramide kinase RNAi on endogenous ceramide kinase activity. […] Following the same procedure as outlined in FIG. 6A, total RNA was extracted and analyzed via logarithmic reverse-transcriptase polymerase chain reaction for human ceramide kinase and 18s ribosomal RNA. […]
Ceramide Kinase Assay: Ceramide kinase activity was measured as described previously with slight modifications (Bajjalieh, S., and Batchelor, R. (2001) Methods Enzymol. 311, 207-215). […] Following Bligh-Dyer extraction, lipids were separated by thin layer chromatography, and NBD-C-1-P was visualized/quantified by fluorescent phosphorimaging.

[3] = system: A549 cells; assay type: cell-based

ceramide kinase RNAi: 21-nucleotide duplex, human ceramide kinase RNAi starting 142 nucleotides from start codon (SEQ ID NO: 3 and 4) (chain 1 UGCCUGCUCUGUGCCUGUATT; chain 2 UACAGGCACAGAGCAGGCATT; chemistry not given here)
inhibition of AA release in response to A23187 ([1]; A23187 1 μg/mL, 26 hours post-transfection): 72%
AA release in response to C-1-P treatment ([1]; C-1-P 2.5 μM for 5 hours): no effect
inhibition of AA release in response to IL-1β ([1]; IL-1β 2.5 ng/mL for 4 hours, 26 hours post-transfection): 78%
IC50 ([1]; IL-1β or A23187, read-out: IC50 of inhibition of agonist-induced AA release): ~30 nM
decrease of endogenous ceramide kinase activity [2]: 67%
effects on cell number [3]: without effects
